# From US9040573B2, “Anti-fungal agent” (Nihon Nohyaku Co., Ltd., priority 2011, dated 2015)
# Where two headings read alike, the source gives them in different places.
# What was measured:
# [1] = tested on: Scytalidium dimidiatum; assay: Antifungal Activity Test 1: MIC by broth microdilution method (Alamar Blue); assay type: cell-based; conditions: for MIC: growth inhibited by 80% or more; for MIC90: concentration to be MIC in 9 strains out of the 10 strains (90%)
# Excerpt: Scytalidium dimidiatum strain of clinical isolate obtained by separation and identification from nail or stratum corneum of patients with superficial mycosis was used. The fungi pre-cultured on an SDA medium was suspended in 0.1% (w/v) Tween 80-containing sterile saline and the suspension was filtered through gauze to collect arthrospore. This was suspended in 0.1% (w/v) Tween 80-containing sterile saline, and added to a 20% Alamar Blue-containing medium to 2×10^4 cells/mL to give a fungal inoculum solution.
# (§1) Each drug was used after dissolving in DMSO (dimethyl sulfoxide).
# (§2) The minimum inhibitory concentration (MIC) was measured by a broth microdilution method. That is, RPMI1640 medium (Sigma-Aldrich) was buffered with 0.165 M morpholine propanesulfonic acid (MOPS, Wako Pure Chemical Industries, Ltd.) to pH 7.0, and a given amount of a solution of the drug in DMSO was added thereto to prepare 2-fold dilution series within the range of 0.00098-4 μg/mL. This was added to a 96-well microplate by 100 μL, a fungal inoculum solution (100 μL, final concentration of fungi to be added: 1.0×10^4 cells/mL) was added, and the mixture was cultured at 35° C. An Alamar Blue reagent was added in advance to the culture medium (final addition concentration: 10%) and, at the time point when the Alamar Blue reagent in the drug-free growth control group changed from blue to red, the culture was discontinued and the absorbance (differential optical density at 570 nm based on 590 nm served as reference) measured. The minimum concentration of the drug that inhibited the growth of the fungus in the growth control group by 80% or more was taken as MIC. The concentration to be MIC (MIC90) in 9 strains out of the 10 strains (90%) measured was determined.
# Reference documents for measurement method: Takako Shinoda et al.: opinion proposed by Committee for Clinical Laboratory Standards of The Japanese Society for Medical Mycology (1995-1997), Method for antifungal susceptibility testing of filamentous fungus, Medical Mycology Journal, 40: 239-257, 1999. Clinical Laboratory Standards Institute/National Committee for Clinical Laboratory Standards. Reference method for broth dilution antifungal susceptibility testing of filamentous fungus. Approved Standard M38-A2. Wayne, Pa.: National Committee for Clinical Laboratory Standards, 2008. Test Results
# [2] = tested on: Scytalidium hyalinum; assay: Antifungal Activity Test 2: MIC by broth microdilution method (Alamar Blue); assay type: cell-based
# Procedure: as §2
# Scytalidium hyalinum strain of clinical isolate available from CBS (Netherlands) was used. The fungus was pre-cultured in an SDA medium, 0.1% (w/v) Tween 80-containing sterile saline was added to give a suspension, which was filtered through gauze to collect arthrospore. This was suspended in 0.1% (w/v) Tween 80-containing sterile saline, and added to a 20% Alamar Blue-containing medium to 2×10^4 cells/mL to give a fungal inoculum solution.
# as §1
# The test method was the same as in the aforementioned antifungal activity test 1, and the minimum concentration of the drug that inhibited the growth of the fungus in the growth control group by 80% or more was taken as MIC. The MIC range of the 4 strains measured and the geometric mean (GM) of each drug were determined.
# [3] = Neoscytalidium dimidiatum, clinical isolate 530129, read-out: MIC
# [4] = Neoscytalidium dimidiatum, clinical isolate 530142, read-out: MIC
# [5] = Neoscytalidium dimidiatum, clinical isolate 530251, read-out: MIC
# [6] = Neoscytalidium dimidiatum, clinical isolate 530621, read-out: MIC
# [7] = Neoscytalidium dimidiatum, clinical isolate 530633, read-out: MIC
# [8] = Neoscytalidium dimidiatum, clinical isolate 530914, read-out: MIC
# [9] = Neoscytalidium dimidiatum, clinical isolate 530946, read-out: MIC
# [10] = Neoscytalidium dimidiatum, clinical isolate 530999, read-out: MIC
# [11] = Neoscytalidium dimidiatum, clinical isolate 531581, read-out: MIC
# [12] = Neoscytalidium dimidiatum, clinical isolate 531869, read-out: MIC
# [13] = Neoscytalidium dimidiatum, read-out: MIC90
# [14] = Neoscytalidium hyalinum, clinical isolate CBS200.88, growth inhibited by 80% or more, read-out: MIC
# [15] = Neoscytalidium hyalinum, clinical isolate CBS545.95, growth inhibited by 80% or more, read-out: MIC
# [16] = Neoscytalidium hyalinum, clinical isolate CBS601.85, growth inhibited by 80% or more, read-out: MIC
# [17] = Neoscytalidium hyalinum, clinical isolate CBS619.84, growth inhibited by 80% or more, read-out: MIC
# [18] = Neoscytalidium hyalinum, geometric mean of the 4 strains measured, read-out: GM (geometric mean of MIC)
# [19] = Neoscytalidium hyalinum, range of the 4 strains measured, read-out: MIC range
structure (smiles),measurement,setting,value
"N#C/C(=C1/SCC(c2ccccc2Cl)S1)n1ccnc1 (stereo not shown) [LCZ, [4-(2-chlorophenyl)-1,3-dithioran-2-ylidene](1H-imidazol-1-yl)acetonitrile]",MIC,[1]; [3],0.0039 µg/mL
same,MIC,[1]; [4],0.002 µg/mL
same,MIC,[1]; [5],0.0039 µg/mL
same,MIC,[1]; [6],0.0039 µg/mL
same,MIC,[1]; [7],0.0039 µg/mL
same,MIC,[1]; [8],0.0039 µg/mL
same,MIC,[1]; [9],0.0039 µg/mL
same,MIC,[1]; [10],0.002 µg/mL
same,MIC,[1]; [11],0.0039 µg/mL
same,MIC,[1]; [12],0.002 µg/mL
same,MIC90,[1]; [13],0.0039 µg/mL
same,MIC,[2]; [14],0.002 µg/mL
same,MIC,[2]; [15],0.00098 µg/mL
same,MIC,[2]; [16],0.00024 µg/mL
same,MIC,[2]; [17],0.002 µg/mL
same,MIC,[2]; [18],0.00098 µg/mL
same,MIC,[2]; [19],0.00024 to 0.002 µg/mL
"N#C/C(=C1/SC[C@@H](c2ccc(Cl)cc2Cl)S1)n1ccnc1 [LLCZ, (−)-(E)-[(4R)-(2,4-dichlorophenyl)-1,3-dithioran-2-ylidene](1H-imidazol-1-yl)acetonitrile]",MIC,[1]; [3],0.002 µg/mL
same,MIC,[1]; [4],0.002 µg/mL
same,MIC,[1]; [5],0.002 µg/mL
same,MIC,[1]; [6],0.002 µg/mL
same,MIC,[1]; [7],0.002 µg/mL
same,MIC,[1]; [8],0.002 µg/mL
same,MIC,[1]; [9],0.002 µg/mL
same,MIC,[1]; [10],0.002 µg/mL
same,MIC,[1]; [11],0.002 µg/mL
same,MIC,[1]; [12],0.00098 µg/mL
same,MIC90,[1]; [13],0.002 µg/mL
same,MIC,[2]; [14],0.00098 µg/mL
same,MIC,[2]; [15],0.00098 µg/mL
same,MIC,[2]; [16],0.00012 µg/mL
same,MIC,[2]; [17],0.00098 µg/mL
same,MIC,[2]; [18],0.00058 µg/mL
same,MIC,[2]; [19],0.00012 to 0.00098 µg/mL
"C[C@@H]1[C@H](O)[C@@H](C)/C=C/C=C/C=C/C=C/C=C/C=C/C=C/[C@H](O[C@@H]2O[C@H](C)[C@@H](O)[C@H](N)[C@@H]2O)C[C@@H]2O[C@](O)(C[C@@H](O)C[C@@H](O)[C@H](O)CC[C@@H](O)C[C@@H](O)CC(=O)O[C@H]1C)C[C@H](O)[C@H]2C(=O)O [AMPB, amphotericin B]",MIC,[1]; clinical isolate 530129,0.25 µg/mL
same,MIC,[1]; clinical isolate 530142,0.13 µg/mL
same,MIC,[1]; clinical isolate 530251,0.25 µg/mL
same,MIC,[1]; clinical isolate 530621,0.25 µg/mL
same,MIC,[1]; clinical isolate 530633,0.25 µg/mL
same,MIC,[1]; clinical isolate 530914,0.13 µg/mL
same,MIC,[1]; clinical isolate 530946,0.25 µg/mL
same,MIC,[1]; clinical isolate 530999,0.5 µg/mL
same,MIC,[1]; clinical isolate 531581,0.25 µg/mL
same,MIC,[1]; clinical isolate 531869,0.25 µg/mL
same,MIC90,[1],0.25 µg/mL
same,MIC,"[2]; clinical isolate CBS200.88, growth inhibited by 80% or more",0.5 µg/mL
same,MIC,"[2]; clinical isolate CBS545.95, growth inhibited by 80% or more",1 µg/mL
same,MIC,"[2]; clinical isolate CBS601.85, growth inhibited by 80% or more",0.5 µg/mL
same,MIC,"[2]; clinical isolate CBS619.84, growth inhibited by 80% or more",0.5 µg/mL
same,GM (geometric mean of MIC),[2]; geometric mean of the 4 strains measured,0.59 µg/mL
same,MIC range,[2]; range of the 4 strains measured,0.5 to 1 µg/mL
"OC(Cn1cncn1)(Cn1cncn1)c1ccc(F)cc1F [FCZ, fluconazole]",MIC,[1]; [3],> 4 µg/mL
same,MIC,[1]; [4],> 4 µg/mL
same,MIC,[1]; [5],> 4 µg/mL
same,MIC,[1]; [6],> 4 µg/mL
same,MIC,[1]; [7],> 4 µg/mL
same,MIC,[1]; [8],> 4 µg/mL
same,MIC,[1]; [9],> 4 µg/mL
same,MIC,[1]; [10],> 4 µg/mL
same,MIC,[1]; [11],> 4 µg/mL
same,MIC,[1]; [12],> 4 µg/mL
same,MIC90,[1]; [13],> 4 µg/mL
same,MIC,[2]; [14],> 4 µg/mL
same,MIC,[2]; [15],> 4 µg/mL
same,MIC,[2]; [16],2 µg/mL
same,MIC,[2]; [17],> 4 µg/mL
same,MIC,[2]; [18],> 4 µg/mL
"C[C@@H](c1ncncc1F)[C@](O)(Cn1cncn1)c1ccc(F)cc1F [VCZ, voriconazole]",MIC,[1]; [3],0.25 µg/mL
same,MIC,[1]; [4],0.25 µg/mL
same,MIC,[1]; [5],0.13 µg/mL
same,MIC,[1]; [6],0.25 µg/mL
same,MIC,[1]; [7],0.25 µg/mL
same,MIC,[1]; [8],0.25 µg/mL
same,MIC,[1]; [9],0.25 µg/mL
same,MIC,[1]; [10],0.13 µg/mL
same,MIC,[1]; [11],0.25 µg/mL
same,MIC,[1]; [12],0.13 µg/mL
same,MIC90,[1]; [13],0.25 µg/mL
same,MIC,[2]; [14],0.13 µg/mL
same,MIC,[2]; [15],0.063 µg/mL
same,MIC,[2]; [16],0.016 µg/mL
same,MIC,[2]; [17],0.13 µg/mL
same,MIC,[2]; [18],0.064 µg/mL
same,MIC,[2]; [19],0.016 to 0.13 µg/mL
"CC(=O)N1CCN(c2ccc(OCC3COC(Cn4ccnc4)(c4ccc(Cl)cc4Cl)O3)cc2)CC1 (stereo not shown) [KCZ, ketoconazole]",MIC,[1]; [3],4 µg/mL
same,MIC,[1]; [4],> 4 µg/mL
same,MIC,[1]; [5],> 4 µg/mL
same,MIC,[1]; [6],> 4 µg/mL
same,MIC,[1]; [7],4 µg/mL
same,MIC,[1]; [8],> 4 µg/mL
same,MIC,[1]; [9],> 4 µg/mL
same,MIC,[1]; [10],> 4 µg/mL
same,MIC,[1]; [11],> 4 µg/mL
same,MIC,[1]; [12],2 µg/mL
same,MIC90,[1]; [13],> 4 µg/mL
same,MIC,[2]; [14],2 µg/mL
same,MIC,[2]; [15],1 µg/mL
same,MIC,[2]; [16],0.031 µg/mL
same,MIC,[2]; [17],2 µg/mL
same,MIC,[2]; [18],0.59 µg/mL
same,MIC,[2]; [19],0.031 to 2 µg/mL
"Clc1ccccc1C(c1ccccc1)(c1ccccc1)n1ccnc1 [CTZ, clotrimazole]",MIC,[1]; [3],0.5 µg/mL
same,MIC,[1]; [4],0.5 µg/mL
same,MIC,[1]; [5],0.25 µg/mL
same,MIC,[1]; [6],0.5 µg/mL
same,MIC,[1]; [7],0.5 µg/mL
same,MIC,[1]; [8],0.5 µg/mL
same,MIC,[1]; [9],0.5 µg/mL
same,MIC,[1]; [10],0.25 µg/mL
same,MIC,[1]; [11],0.25 µg/mL
same,MIC,[1]; [12],0.25 µg/mL
same,MIC90,[1]; [13],0.5 µg/mL
same,MIC,[2]; [14],0.13 µg/mL
same,MIC,[2]; [15],0.13 µg/mL
same,MIC,[2]; [16],0.13 µg/mL
same,MIC,[2]; [17],0.25 µg/mL
same,MIC,[2]; [18],0.15 µg/mL
same,MIC,[2]; [19],0.13 to 0.25 µg/mL
